Assays:
Type in all cases: cell-based, human
[1] = tested on: glioblastoma PDC sample A; experiment: CCK-8 viable count of glioblastoma PDC sample A after drug treatment; conditions: for Living cell proportion (a value relative to CCK8): PDC sample A, 72 h
Description: (§1) Enzymolysis was separately carried out on the four collected glioblastoma samples to obtain glioblastoma PDC samples A, B, C and D.
(§2) The glioblastoma PDC samples A, B, C and D were taken, re-suspended by using a special culture medium, and then respectively inoculated into a 96-well cell culture plate, so that each culture well contained 3000 cells. After inoculation was completed, the 96-well cell culture plate was placed in an incubator containing 5% CO2 at 37° C., and incubation was performed for 24 h. […] After the drug was added, the incubation was continued to be performed for 72 h, then the viable count in each culture well was measured by using CCK-8, and the results are shown in Table 1, Table 2, FIG. 11 and FIG. 12.

[2] = tested on: glioblastoma PDC sample B; experiment: CCK-8 viable count of glioblastoma PDC sample B after drug treatment; conditions: for Living cell proportion (a value relative to CCK8): PDC sample B, 72 h
Description: as §1
(§3) The glioblastoma PDC samples A, B, C and D were taken, re-suspended by using a special culture medium, and then respectively inoculated into a 96-well cell culture plate, so that each culture well contained 3000 cells. After inoculation was completed, the 96-well cell culture plate was placed in an incubator containing 5% CO2 at 37° C., and incubation was performed for 24 h.

[3] = tested on: glioblastoma PDC sample D; experiment: CCK-8 viable count of glioblastoma PDC sample D after drug treatment; conditions: for Living cell proportion (a value relative to CCK8): 72 h
Description: as §1, §2

[4] = tested on: glioblastoma PDC sample C; experiment: CCK-8 viable count of glioblastoma PDC sample C after drug treatment; conditions: for Living cell proportion (a value relative to CCK8): 72 h
Description: as §1, §3

In the case of `Cn1nnc2c(C(N)=O)ncn2c1=O` [TMZ, temozolomide], the “Living cell proportion (a value relative to CCK8)” value ([1]; TMZ 50 μM) is reported as 0.8481, the “Living cell proportion (a value relative to CCK8)” value ([1]; TMZ 100 μM) is reported as 0.8696 and the “Living cell proportion (a value relative to CCK8)” value ([1]; TMZ 150 μM) is reported as 0.7968. The “Living cell proportion (a value relative to CCK8)” value ([1]; TMZ 200 μM) was 0.7843, the “Living cell proportion (a value relative to CCK8)” value ([1]; TMZ 300 μM) was 0.7824 and the “Living cell proportion (a value relative to CCK8)” value ([1]; TMZ 400 μM) was 0.6482. For the same compound, the “Living cell proportion (a value relative to CCK8)” value ([1]; TMZ 600 μM) was 0.5261, the “Living cell proportion (a value relative to CCK8)” value ([1]; TMZ 800 μM) was 0.4052 and the “Living cell proportion (a value relative to CCK8)” value ([1]; TMZ 1000 μM) was 0.2577. The “Living cell proportion (a value relative to CCK8)” value ([2]; TMZ 50 μM) was 0.8549, the “Living cell proportion (a value relative to CCK8)” value ([2]; TMZ 100 μM) was 0.8905 and the “Living cell proportion (a value relative to CCK8)” value ([2]; TMZ 150 μM) was 0.9369. The “Living cell proportion (a value relative to CCK8)” value ([2]; TMZ 200 μM) was 0.8763, the “Living cell proportion (a value relative to CCK8)” value ([2]; TMZ 300 μM) was 0.724 and the “Living cell proportion (a value relative to CCK8)” value ([2]; TMZ 400 μM) was 0.7183. The “Living cell proportion (a value relative to CCK8)” value ([2]; TMZ 600 μM) was 0.5489, the “Living cell proportion (a value relative to CCK8)” value ([2]; TMZ 800 μM) was 0.345 and the “Living cell proportion (a value relative to CCK8)” value ([2]; TMZ 1000 μM) was 0.3175. The “Living cell proportion (a value relative to CCK8)” value ([3]; TMZ 50 μM) was 0.7828, the “Living cell proportion (a value relative to CCK8)” value ([3]; TMZ 100 μM) was 0.647 and the “Living cell proportion (a value relative to CCK8)” value ([3]; TMZ 150 μM) was 0.5799. The “Living cell proportion (a value relative to CCK8)” value ([3]; TMZ 200 μM) was 0.5468, the “Living cell proportion (a value relative to CCK8)” value ([3]; TMZ 300 μM) was 0.4681 and the “Living cell proportion (a value relative to CCK8)” value ([3]; TMZ 400 μM) was 0.3984. The “Living cell proportion (a value relative to CCK8)” value ([3]; TMZ 600 μM) was 0.3435, the “Living cell proportion (a value relative to CCK8)” value ([3]; TMZ 800 μM) was 0.2684 and the “Living cell proportion (a value relative to CCK8)” value ([3]; TMZ 1000 μM) was 0.2529. The “Living cell proportion (a value relative to CCK8)” value ([4]; TMZ 50 μM) was 0.6188, the “Living cell proportion (a value relative to CCK8)” value ([4]; TMZ 100 μM) was 0.5841 and the “Living cell proportion (a value relative to CCK8)” value ([4]; TMZ 150 μM) was 0.4536. The “Living cell proportion (a value relative to CCK8)” value ([4]; TMZ 200 μM) was 0.4768, the “Living cell proportion (a value relative to CCK8)” value ([4]; TMZ 300 μM) was 0.4315 and the “Living cell proportion (a value relative to CCK8)” value ([4]; TMZ 400 μM) was 0.3164. For the same compound, the “Living cell proportion (a value relative to CCK8)” value ([4]; TMZ 600 μM) was 0.2817, the “Living cell proportion (a value relative to CCK8)” value ([4]; TMZ 800 μM) was 0.2834 and the “Living cell proportion (a value relative to CCK8)” value ([4]; TMZ 1000 μM) was 0.3585.

In the case of `C[C@@H](Oc1cc(-c2cnn(C3CCNCC3)c2)cnc1N)c1c(Cl)ccc(F)c1Cl` [crizotinib], the “sensitivity of the glioblastoma PDC sample to the drug” value (from here on “sensitivity”) ([1]; PDC sample A (MET exon 10 and exon 19 deleted), in words) is reported as “sensitive”, the “Living cell proportion (a value relative to CCK8)” value ([1]; crizotinib 0.5 μM) is reported as 0.824 and the “Living cell proportion (a value relative to CCK8)” value ([1]; crizotinib 1 μM) is reported as 0.5684. For the same compound, the “Living cell proportion (a value relative to CCK8)” value ([1]; crizotinib 1.5 μM) was 0.4624, the “Living cell proportion (a value relative to CCK8)” value ([1]; crizotinib 2 μM) was 0.3834 and the “Living cell proportion (a value relative to CCK8)” value ([1]; crizotinib 3 μM) was 0.3316. For the same compound, the “Living cell proportion (a value relative to CCK8)” value ([1]; crizotinib 6 μM) was 0.2663, the “Living cell proportion (a value relative to CCK8)” value ([1]; crizotinib 9 μM) was 0.2482 and the “Living cell proportion (a value relative to CCK8)” value ([1]; crizotinib 12 μM) was 0.2387. The “Living cell proportion (a value relative to CCK8)” value ([1]; crizotinib 15 μM) was 0.2518, the “sensitivity” value ([2]; PDC sample B (MET exon 10 deleted), in words) was “sensitive” and the “Living cell proportion (a value relative to CCK8)” value ([2]; crizotinib 0.5 μM) was 0.9128. The “Living cell proportion (a value relative to CCK8)” value ([2]; crizotinib 1 μM) was 0.7978, the “Living cell proportion (a value relative to CCK8)” value ([2]; crizotinib 1.5 μM) was 0.7125 and the “Living cell proportion (a value relative to CCK8)” value ([2]; crizotinib 6 μM) was 0.3689. The “Living cell proportion (a value relative to CCK8)” value ([2]; crizotinib 9 μM) was 0.3059, the “Living cell proportion (a value relative to CCK8)” value ([2]; crizotinib 12 μM) was 0.2806 and the “Living cell proportion (a value relative to CCK8)” value ([2]; crizotinib 15 μM) was 0.2769. The “Living cell proportion (a value relative to CCK8)” value ([3]; crizotinib 0.5 μM) was 0.9247, the “Living cell proportion (a value relative to CCK8)” value ([3]; crizotinib 1 μM) was 0.8162 and the “Living cell proportion (a value relative to CCK8)” value ([3]; crizotinib 1.5 μM) was 0.7327. The “Living cell proportion (a value relative to CCK8)” value ([3]; crizotinib 2 μM) was 0.6986, the “Living cell proportion (a value relative to CCK8)” value ([3]; crizotinib 3 μM) was 0.7544 and the “Living cell proportion (a value relative to CCK8)” value ([3]; crizotinib 6 μM) was 0.5995. The “Living cell proportion (a value relative to CCK8)” value ([3]; crizotinib 9 μM) was 0.4381, the “Living cell proportion (a value relative to CCK8)” value ([3]; crizotinib 12 μM) was 0.3812 and the “Living cell proportion (a value relative to CCK8)” value ([3]; crizotinib 15 μM) was 0.4752. For the same compound, the “sensitivity” value ([3]; in words) was “sensitive”, the “Living cell proportion (a value relative to CCK8)” value ([4]; crizotinib 0.5 μM) was 0.9496 and the “Living cell proportion (a value relative to CCK8)” value ([4]; crizotinib 1 μM) was 0.8619. The “Living cell proportion (a value relative to CCK8)” value ([4]; crizotinib 2 μM) was 0.8082, the “Living cell proportion (a value relative to CCK8)” value ([4]; crizotinib 6 μM) was 0.6643 and the “Living cell proportion (a value relative to CCK8)” value ([4]; crizotinib 9 μM) was 0.4383. For the same compound, the “Living cell proportion (a value relative to CCK8)” value ([4]; crizotinib 12 μM) was 0.4003, the “Living cell proportion (a value relative to CCK8)” value ([4]; crizotinib 15 μM) was 0.3824 and the “sensitivity” value ([4]; in words) was “sensitive”.

From patent US20230160007A1, “KIT FOR EVALUATING SENSITIVITY OF PATIENT TO MET INHIBITOR” (Beijing Neurosurgical Institute, priority 2020, published 2023)
